Measured values from US20220409619A1, “INHIBITORS OF HUMAN IMMUNODEFICIENCY VIRUS REPLICATION” (VIIV HEALTHCARE UK (No. 5) LIMITED, priority 2019, published 2022).

Experiments:
[1] = test system: recombinant NL4-3 virus (nef section replaced with Renilla luciferase gene) in MT-2 cells; assay: HIV cell culture assay (antiviral activity, luciferase readout); format: cell-based; conditions: Renilla, NL43
Experimental: HIV cell culture assay—MT-2 cells, 293T cells and the proviral DNA clone of NL4-3 virus were obtained from the NIH AIDS Research and Reference Reagent Program. MT-2 cells were propagated in RPMI 1640 media supplemented with 10% heat inactivated fetal bovine serum (FBS), 100 μg/ml penicillin G and up to 100 units/mL streptomycin. The 293T cells were propagated in DMEM media supplemented with 10% heat inactivated FBS, 100 μg/mL penicillin G and 100 μg/mL streptomycin. A recombinant NL4-3 proviral clone, in which a section of the nef gene was replaced with the Renilla luciferase gene, was used to make the reference virus used in these studies. The recombinant virus was prepared through transfection of the recombinant NL4-3 proviral clone into 293T cells using Transit-293 Transfection Reagent from Mirus Bio LLC (Madison, Wis.). Supernatent was harvested after 2-3 days and the amount of virus present was titered in MT-2 cells using luciferase enzyme activity as a marker by measuring luciferase enzyme activity. Luciferase was quantitated using the EnduRen Live Cell Substrate from Promega (Madison, Wis.). Antiviral activities of compounds toward the recombinant virus were quantified by measuring luciferase activity in MT-2 cells infected for 4-5 days with the recombinant virus in the presence of serial dilutions of the compound.
The 50% effective concentration (EC50) was calculated by using the exponential form of the median effect equation where (Fa)=1/[1+(ED50/drug conc.)^m] (Johnson V A, Byington R T. Infectivity Assay. In Techniques in HIV Research. ed. Aldovini A, Walker B D. 71-76. New York: Stockton Press. 1990). Curve fitting and analysis were performed with ActivityBase XE Runner software version 9.1.0.4 using model 203 (ID Business Solutions, LTD, Guildford, UK).

[2] = Compound cytotoxicity, XTT-based colorimetric assay; format: cell-based; conditions: human; uninfected MT2 cells, day 4, XTT-based colorimetric assay
Experimental: Compound cytotoxicity and the corresponding CC50 values were determined using the same protocol as described in the antiviral assay except that uninfected cells were used. Cytotoxicity was assessed on day 4 in uninfected MT2 cells by using a XTT (2,3-bis[2-Methoxy-4-nitro-5-sulfophenyl]-2H-tetrazolium-5-carboxyanilide inner salt)-based colorimetric assay (Sigma-Aldrich, St Louis, Mo.).

SMILES | EC50 [1] [nM] | CC50 at 4 days [2] [nM]
Cn1nc(NS(C)(=O)=O)c2c(Cl)ccc(-n3c([C@H](Cc4cc(F)cc(F)c4)NC(=O)Cn4nc(C(F)F)c5c4C(F)(F)[C@@H]4C[C@H]54)nc(-c4csc(C(C)(C)O)n4)cc3=O)c21 (atropisomer, axis not shown; (P)) [Example 18, N-((S)-1-((1P)-1-(4-chloro-1-methyl-3-(methylsulfonamido)-1H-indazol-7-yl)-4-(2-(2-hydroxypropan-2-yl)thiazol-4-yl)-6-oxo-1,6-dihydropyrimidin-2-yl)-2-(3,5-difluorophenyl)ethyl)-2-((3bS,4aR)-3-(difluoromethyl)-5,5-difluoro-3b,4,4a,5-tetrahydro-1H-cyclopropa[3,4]cyclopenta[1,2-c]pyrazol-1-yl)acetamide] | 0.47 | > 100
Cn1nc(C(F)(F)F)cc1-c1cc(=O)n(-c2ccc(Cl)c3c(NS(C)(=O)=O)nn(C)c23)c([C@H](Cc2cc(F)cc(F)c2)NC(=O)Cn2nc(C(F)F)c3c2C(F)(F)[C@@H]2C[C@H]32)n1 (atropisomer, axis not shown; (P)) [Example 19, N-((S)-1-((1P)-1-(4-chloro-1-methyl-3-(methylsulfonamido)-1H-indazol-7-yl)-4-(1-methyl-3-(trifluoromethyl)-1H-pyrazol-5-yl)-6-oxo-1,6-dihydropyrimidin-2-yl)-2-(3,5-difluorophenyl)ethyl)-2-((3bS,4aR)-3-(difluoromethyl)-5,5-difluoro-3b,4,4a,5-tetrahydro-1H-cyclopropa[3,4]cyclopenta[1,2-c]pyrazol-1-yl)acetamide] | 0.74 | > 100
Cn1nc(NS(C)(=O)=O)c2c(Cl)ccc(-n3c([C@H](Cc4cc(F)cc(F)c4)NC(=O)Cn4nc(C(F)F)c5c4C(F)(F)[C@@H]4C[C@H]54)nc(-c4cnccn4)cc3=O)c21 (atropisomer, axis not shown; (P)) [Example 20, N-((S)-1-((1P)-1-(4-chloro-1-methyl-3-(methylsulfonamido)-1H-indazol-7-yl)-6-oxo-4-(pyrazin-2-yl)-1,6-dihydropyrimidin-2-yl)-2-(3,5-difluorophenyl)ethyl)-2-((3bS,4aR)-3-(difluoromethyl)-5,5-difluoro-3b,4,4a,5-tetrahydro-1H-cyclopropa[3,4]cyclopenta[1,2-c]pyrazol-1-yl)acetamide] | 0.16 | > 100
CCOc1ccc(-c2cc(=O)n(-c3ccc(Cl)c4c(NS(C)(=O)=O)nn(C)c34)c([C@H](Cc3cc(F)cc(F)c3)NC(=O)Cn3nc(C(F)F)c4c3C(F)(F)[C@@H]3C[C@H]43)n2)cn1 (atropisomer, axis not shown; (P)) [Example 22, N-((S)-1-((1P)-1-(4-chloro-1-methyl-3-(methylsulfonamido)-1H-indazol-7-yl)-4-(6-ethoxypyridin-3-yl)-6-oxo-1,6-dihydropyrimidin-2-yl)-2-(3,5-difluorophenyl)ethyl)-2-((3bS,4aR)-3-(difluoromethyl)-5,5-difluoro-3b,4,4a,5-tetrahydro-1H-cyclopropa[3,4]cyclopenta[1,2-c]pyrazol-1-yl)acetamide] | 0.46 | > 100
Cn1nc(NS(C)(=O)=O)c2c(Cl)ccc(-n3c([C@H](Cc4cc(F)cc(F)c4)NC(=O)Cn4nc(C(F)F)c5c4C(F)(F)[C@@H]4C[C@H]54)nc(-c4cccc(F)n4)cc3=O)c21 (atropisomer, axis not shown; (P)) [Example 23, N-((S)-1-((1P)-1-(4-chloro-1-methyl-3-(methylsulfonamido)-1H-indazol-7-yl)-4-(6-fluoropyridin-2-yl)-6-oxo-1,6-dihydropyrimidin-2-yl)-2-(3,5-difluorophenyl)ethyl)-2-((3bS,4aR)-3-(difluoromethyl)-5,5-difluoro-3b,4,4a,5-tetrahydro-1H-cyclopropa[3,4]cyclopenta[1,2-c]pyrazol-1-yl)acetamide] | 0.42 | > 100
Cn1nc(NS(C)(=O)=O)c2c(Cl)ccc(-n3c([C@H](Cc4cc(F)cc(F)c4)NC(=O)Cn4nc(C(F)F)c5c4C(F)(F)[C@@H]4C[C@H]54)nc(-c4ccc(Cl)cn4)cc3=O)c21 (atropisomer, axis not shown; (P)) [Example 24, N-((S)-1-((1P)-1-(4-chloro-1-methyl-3-(methylsulfonamido)-1H-indazol-7-yl)-4-(5-chloropyridin-2-yl)-6-oxo-1,6-dihydropyrimidin-2-yl)-2-(3,5-difluorophenyl)ethyl)-2-((3bS,4aR)-3-(difluoromethyl)-5,5-difluoro-3b,4,4a,5-tetrahydro-1H-cyclopropa[3,4]cyclopenta[1,2-c]pyrazol-1-yl)acetamide] | 0.37 | > 100
Cn1nc(NS(C)(=O)=O)c2c(Cl)ccc(-n3c([C@H](Cc4cc(F)cc(F)c4)NC(=O)Cn4nc(C(F)F)c5c4C(F)(F)[C@@H]4C[C@H]54)nc(-c4cnc(C(C)(C)O)s4)cc3=O)c21 (atropisomer, axis not shown; (P)) [Example 25, N-((S)-1-((1P)-1-(4-chloro-1-methyl-3-(methylsulfonamido)-1H-indazol-7-yl)-4-(2-(2-hydroxypropan-2-yl)thiazol-5-yl)-6-oxo-1,6-dihydropyrimidin-2-yl)-2-(3,5-difluorophenyl)ethyl)-2-((3bS,4aR)-3-(difluoromethyl)-5,5-difluoro-3b,4,4a,5-tetrahydro-1H-cyclopropa[3,4]cyclopenta[1,2-c]pyrazol-1-yl)acetamide] | 1.5 | > 100
O=C(Cn1nc(C(F)F)c2c1C(F)(F)[C@@H]1C[C@H]21)N[C@@H](Cc1cc(F)cc(F)c1)c1nc(-c2cccc(F)n2)cc(=O)n1-c1ccc(Cl)c2c(NS(=O)(=O)C3CC3)nn(CC(F)F)c12 (atropisomer, axis not shown; (P)) [Example 28, N-((S)-1-((1P)-1-(4-chloro-3-(cyclopropanesulfonamido)-1-(2,2-difluoroethyl)-1H-indazol-7-yl)-4-(6-fluoropyridin-2-yl)-6-oxo-1,6-dihydropyrimidin-2-yl)-2-(3,5-difluorophenyl)ethyl)-2-((3bS,4aR)-3-(difluoromethyl)-5,5-difluoro-3b,4,4a,5-tetrahydro-1H-cyclopropa[3,4]cyclopenta[1,2-c]pyrazol-1-yl)acetamide] | 0.39 | > 100
COc1cnc(-c2cc(=O)n(-c3ccc(Cl)c4c(NS(=O)(=O)C5CC5)nn(CC(F)F)c34)c([C@H](Cc3cc(F)cc(F)c3)NC(=O)Cn3nc(C(F)F)c4c3C(F)(F)[C@@H]3C[C@H]43)n2)cn1 (atropisomer, axis not shown; (P)) [Example 31, N-((S)-1-((1P)-1-(4-chloro-3-(cyclopropanesulfonamido)-1-(2,2-difluoroethyl)-1H-indazol-7-yl)-4-(5-methoxypyrazin-2-yl)-6-oxo-1,6-dihydropyrimidin-2-yl)-2-(3,5-difluorophenyl)ethyl)-2-((3bS,4aR)-3-(difluoromethyl)-5,5-difluoro-3b,4,4a,5-tetrahydro-1H-cyclopropa[3,4]cyclopenta[1,2-c]pyrazol-1-yl)acetamide] | 0.53 | > 100
O=C(Cn1nc(C(F)F)c2c1C(F)(F)[C@@H]1C[C@H]21)N[C@@H](Cc1cc(F)cc(F)c1)c1nc(-c2ccc(Cl)cn2)cc(=O)n1-c1ccc(Cl)c2c(NS(=O)(=O)C3CC3)nn(CC(F)F)c12 (atropisomer, axis not shown; (P)) [Example 35, N-((S)-1-((1P)-1-(4-chloro-3-(cyclopropanesulfonamido)-1-(2,2-difluoroethyl)-1H-indazol-7-yl)-4-(5-chloropyridin-2-yl)-6-oxo-1,6-dihydropyrimidin-2-yl)-2-(3,5-difluorophenyl)ethyl)-2-((3bS,4aR)-3-(difluoromethyl)-5,5-difluoro-3b,4,4a,5-tetrahydro-1H-cyclopropa[3,4]cyclopenta[1,2-c]pyrazol-1-yl)acetamide] | 0.72 | > 100
CC(C)(C#Cc1cc(=O)n(-c2ccc(Cl)c3c(NS(=O)(=O)C4CC4)nn(CC(F)F)c23)c([C@H](Cc2cc(F)cc(F)c2)NC(=O)Cn2nc(C(F)(F)F)c3c2C(F)(F)[C@@H]2C[C@H]32)n1)S(C)(=O)=O (atropisomer, axis not shown; (P)) [Example 36, N-((S)-1-((1P)-1-(4-chloro-3-(cyclopropanesulfonamido)-1-(2,2-difluoroethyl)-1H-indazol-7-yl)-4-(3-methyl-3-(methylsulfonyl)but-1-yn-1-yl)-6-oxo-1,6-dihydropyrimidin-2-yl)-2-(3,5-difluorophenyl)ethyl)-2-((3bS,4aR)-5,5-difluoro-3-(trifluoromethyl)-3b,4,4a,5-tetrahydro-1H-cyclopropa[3,4]cyclopenta[1,2-c]pyrazol-1-yl)acetamide] | 0.16 | > 100
